Experimental data taken from patent USRE39496E1, “Kahalalide F and compositions and uses thereof” (PharmaMar, S.A., priority 1993, dated 2007).

How the values were obtained:
[1] = system: human lung carcinoma A-549; experiment: In vitro cytotoxicity, A-549 cell culture; type: cell-based; details: A-549 cells
Experimental: (§1) The antitumor activities of this compound has been determined “in vitro” in cell cultures of human lung carcinoma A-549 and human colon carcinoma HT-29. The procedure was carried out using the metnhodology methodology described by Raymond J. Bergeron et al. Biochem. Bioph. Res. Comm. 1984, 121(3), 848-854 and by Alan C. Schroeder et al. J. Med. Chem. 1981, 24 1078-1083.

[2] = system: human colon carcinoma HT-29; experiment: In vitro cytotoxicity, HT-29 cell culture; type: cell-based; details: HT-29 cells
Experimental: as §1

HSV II = details: Mv 2 Lu cells / HSV II; concentration giving the printed % reduction
HSV-1 = details: CV-1 cells / HSV-1
Aspergillus oryzae = details: 50 μg/disk
Penicillium notatum = details: 50 μg/disk
Tricophyton mentagrophy = details: 50 μg/disk
Saccharomyces cerevisiac = details: 50 μg/disk
Candida albicans = details: 50 μg/disk

C/C=C1\NC(=O)[C@H](Cc2ccccc2)NC(=O)[C@@H](C(C)C)NC(=O)[C@@H]([C@@H](C)CC)NC(=O)[C@H](NC(=O)[C@H](NC(=O)[C@H](CCCN)NC(=O)[C@H]2CCCN2C(=O)[C@H](NC(=O)[C@@H](NC(=O)[C@@H](NC(=O)[C@H](NC(=O)CCCC(C)C)C(C)C)[C@@H](C)O)C(C)C)C(C)C)[C@@H](C)CC)[C@@H](C)OC(=O)[C@H](C(C)C)NC1=O [Kahalalide F]
Cytoxicity (IC50) [1]: 2.5 µg/mL | Cytoxicity (IC50) [2]: 0.25 to 0.5 µg/mL | Antiviral (HSV II): 0.5 µg/mL | Antiviral (HSV-1): >8 µg/mL | Antiviral (VSV): >8 µg/mL | Antifungal 6 mm disk (Aspergillus oryzae): 19 mm | Antifungal 6 mm disk (Penicillium notatum): 26 mm | Antifungal 6 mm disk (Tricophyton mentagrophy): 34 mm | Antifungal 6 mm disk (Saccharomyces cerevisiac): neg | Antifungal 6 mm disk (Candida albicans): 16 mm
